# Laboratory results reported in PubChem BioAssay (NCI).
#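 48-hour exposure; five concentrations; linearly interpolated endpoints. Definition used: TGI = concentration required for complete inhibition of growth.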
# Columns and labels:
# Experiment in all cases: NCI anticancer screen, dose series, 48 h
# DLD-1 colon = tested on: DLD-1 colon
# HOP-18 NSCLC = tested on: HOP-18 NSCLC
# KM20L2 colon = tested on: KM20L2 colon
# LXFL 529 NSCLC = tested on: LXFL 529 NSCLC
# M19-MEL melanoma = tested on: M19-MEL melanoma
# RXF-631 renal = tested on: RXF-631 renal
# SNB-78 CNS = tested on: SNB-78 CNS
# XF 498 CNS = tested on: XF 498 CNS
# DMS 273 small cell lung = tested on: DMS 273 small cell lung
smiles,measurement,setting,value
CCOC(=O)C(C(=O)OCC)=C1N[C@H](C(=O)OCC)CS1,TGI,DLD-1 colon,> 100 µM
same,TGI,HOP-18 NSCLC,> 100 µM
same,TGI,KM20L2 colon,> 100 µM
same,TGI,LXFL 529 NSCLC,> 100 µM
same,TGI,M19-MEL melanoma,> 100 µM
same,TGI,RXF-631 renal,> 100 µM
same,TGI,SNB-78 CNS,> 100 µM
same,TGI,XF 498 CNS,> 100 µM
NC(=O)NC1=NC(Cc2ccccc2)C(=O)N1Cc1ccccc1 (stereo not given),TGI,DLD-1 colon,> 100 µM
same,TGI,DMS 273 small cell lung,> 100 µM
same,TGI,KM20L2 colon,> 100 µM
same,TGI,LXFL 529 NSCLC,> 100 µM
same,TGI,M19-MEL melanoma,> 100 µM
same,TGI,SNB-78 CNS,> 100 µM
same,TGI,XF 498 CNS,> 100 µM
CC(=O)OC1CC2C(C)(C)C(=O)C=C[C@]2(C)C2CCC3(C)C(c4ccoc4)[C@@H](O)[C@H]4O[C@]43[C@]12C (stereo not given in full),TGI,DLD-1 colon,41 µM
same,TGI,DMS 273 small cell lung,89.1 µM
same,TGI,HOP-18 NSCLC,45.5 µM
same,TGI,KM20L2 colon,33.4 µM
same,TGI,LXFL 529 NSCLC,37 µM
same,TGI,M19-MEL melanoma,36.5 µM
same,TGI,SNB-78 CNS,67.8 µM
CC(=O)c1ccc(NC(=O)C(=O)C(C(=O)c2ccc(Cl)c(Cl)c2)C2OC(=O)c3ccccc32)cc1 (stereo not given),TGI,DLD-1 colon,55.8 µM
same,TGI,DMS 273 small cell lung,68.5 µM
same,TGI,HOP-18 NSCLC,90.6 µM
same,TGI,KM20L2 colon,> 100 µM
same,TGI,LXFL 529 NSCLC,32.8 µM
same,TGI,SNB-78 CNS,> 100 µM
same,TGI,XF 498 CNS,> 100 µM
c1ccc(CN2CCCCC(Sc3ccccc3)CC2)cc1 (stereo not given),TGI,DLD-1 colon,41.7 µM
same,TGI,DMS 273 small cell lung,25.1 µM
same,TGI,HOP-18 NSCLC,> 100 µM
same,TGI,KM20L2 colon,76.3 µM
same,TGI,LXFL 529 NSCLC,32.6 µM
same,TGI,M19-MEL melanoma,12.9 µM
same,TGI,SNB-78 CNS,80.1 µM
C=C(Br)C(C)(Br)CCC(Br)C(C)(C)Br (stereo not given),TGI,DLD-1 colon,> 100 µM
same,TGI,DMS 273 small cell lung,42.9 µM
same,TGI,HOP-18 NSCLC,> 100 µM
same,TGI,LXFL 529 NSCLC,45.2 µM
same,TGI,M19-MEL melanoma,35.8 µM
same,TGI,SNB-78 CNS,70.4 µM
CCCCCNC(=O)c1c(O)[nH]c(=S)[nH]c1=O,TGI,KM20L2 colon,> 100 µM
same,TGI,LXFL 529 NSCLC,> 100 µM
same,TGI,M19-MEL melanoma,> 100 µM
same,TGI,RXF-631 renal,> 100 µM
same,TGI,SNB-78 CNS,> 100 µM
CC1=CC(=O)c2c(C=O)c(O)c(O)c(C(C)C)c2C1=O,TGI,DLD-1 colon,> 68.4 µM
same,TGI,DMS 273 small cell lung,> 88.5 µM
same,TGI,HOP-18 NSCLC,58 µM
same,TGI,KM20L2 colon,> 100 µM
same,TGI,LXFL 529 NSCLC,41.4 µM
same,TGI,M19-MEL melanoma,> 100 µM
same,TGI,SNB-78 CNS,> 100 µM
same,TGI,XF 498 CNS,43.9 µM
